Key:
EP2 [1] = target: T1, EP2 (Homo sapiens, UniProt P43116); experiment: EP2 flipr functional assay; assay type: cell-based
Source text: (§1) United States Patent Application Publication No. 20070129552, incorporated by reference herein, describes the methods used to obtain the in vitro data in the table below.

EP2 [2] = target: T1, EP2; experiment: EP2 binding (Ki)
Source text: as §1

EP4 [3] = target: T2, EP4 (Homo sapiens, UniProt P35408); experiment: EP4 binding (KI)
Source text: as §1

hEP3A = target: T3, hEP3A (Homo sapiens, UniProt P43115); experiment: Other receptors functional assay, hEP3A; assay type: cell-based
T3 sequence (P43115 1-390): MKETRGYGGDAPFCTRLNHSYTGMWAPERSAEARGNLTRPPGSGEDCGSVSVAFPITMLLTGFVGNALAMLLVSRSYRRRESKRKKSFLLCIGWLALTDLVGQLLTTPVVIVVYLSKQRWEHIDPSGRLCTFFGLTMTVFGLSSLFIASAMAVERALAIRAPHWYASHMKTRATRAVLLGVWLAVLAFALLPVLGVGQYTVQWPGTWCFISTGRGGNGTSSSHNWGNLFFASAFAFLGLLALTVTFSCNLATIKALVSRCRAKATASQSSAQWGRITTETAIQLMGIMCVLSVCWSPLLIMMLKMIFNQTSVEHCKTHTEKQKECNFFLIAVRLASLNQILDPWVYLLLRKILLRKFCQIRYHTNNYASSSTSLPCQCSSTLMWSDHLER
Source text: as §1

hDP = target: T4, hDP (Homo sapiens, UniProt Q13258); experiment: Other receptors functional assay, hDP; assay type: cell-based
T4 sequence (Q13258 1-359): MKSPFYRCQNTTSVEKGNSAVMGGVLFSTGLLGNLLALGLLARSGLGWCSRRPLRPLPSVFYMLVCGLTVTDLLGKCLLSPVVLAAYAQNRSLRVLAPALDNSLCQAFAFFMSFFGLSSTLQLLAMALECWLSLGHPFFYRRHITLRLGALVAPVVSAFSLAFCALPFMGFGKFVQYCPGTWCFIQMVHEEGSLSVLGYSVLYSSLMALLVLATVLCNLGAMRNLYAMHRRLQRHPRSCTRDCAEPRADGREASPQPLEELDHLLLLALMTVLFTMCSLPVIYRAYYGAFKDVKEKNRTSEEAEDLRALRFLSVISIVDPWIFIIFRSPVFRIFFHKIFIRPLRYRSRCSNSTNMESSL
Source text: as §1

EP4 [4] = target: T2, EP4; experiment: EP4 flipr functional assay; assay type: cell-based
Source text: as §1

normotensive dogs = experiment: Intraocular pressure and ocular surface hyperemia in normotensive dogs; assay type: in vivo; details: 0.003%, once daily for 5 days
Description: (§2) U.S. Pat. No. 7,091,231 describes the methods used to carry out the tests reported below.
(§3) Isopropyl 5-(3-(3-(4-(1-hydroxyhexyl)phenyl)-2,5-dioxoimidazolidin-4-yl)propyl)thiophene-2-carboxylate (31) was tested in normotensive dogs at 0.003%, dosing once daily for 5 days. The maximum intraocular pressure (IOP) decrease from baseline was 7.7 mmHg (45%) at 102 h; the maximum ocular surface hyperemia (OSH) score was 2.5 at 26 h. This compound was also tested in laser-induced hypertensive monkeys, using one single day dose. At 0.003%, the maximum IOP decrease from baseline was 23 mmHg (53%) at 24 h.
(§4) Isopropyl 5-(3-(3-(4-hexanoylphenyl)-2,5-dioxoimidazolidin-4-yl)propyl)thiophene-2-carboxylate (32) was tested in normotensive dogs at 0.003%, dosing once daily for 5 days. The maximum intraocular pressure (IOP) decrease from baseline was 8.9 mmHg (48%) at 54 h; the maximum ocular surface hyperemia (OSH) score was 2.3 at 54 h. This compound was also tested in laser-induced hypertensive monkeys, using one single day dose. At 0.003%, the maximum IOP decrease from baseline was 19 mmHg (49%) at 24 h.

[5] = test system: laser-induced hypertensive monkeys; experiment: Intraocular pressure in laser-induced hypertensive monkeys; assay type: in vivo; details: 0.003%, one single day dose, at 24 h
Description: as §2, §3, §4

T2 sequence (P35408 whole entry): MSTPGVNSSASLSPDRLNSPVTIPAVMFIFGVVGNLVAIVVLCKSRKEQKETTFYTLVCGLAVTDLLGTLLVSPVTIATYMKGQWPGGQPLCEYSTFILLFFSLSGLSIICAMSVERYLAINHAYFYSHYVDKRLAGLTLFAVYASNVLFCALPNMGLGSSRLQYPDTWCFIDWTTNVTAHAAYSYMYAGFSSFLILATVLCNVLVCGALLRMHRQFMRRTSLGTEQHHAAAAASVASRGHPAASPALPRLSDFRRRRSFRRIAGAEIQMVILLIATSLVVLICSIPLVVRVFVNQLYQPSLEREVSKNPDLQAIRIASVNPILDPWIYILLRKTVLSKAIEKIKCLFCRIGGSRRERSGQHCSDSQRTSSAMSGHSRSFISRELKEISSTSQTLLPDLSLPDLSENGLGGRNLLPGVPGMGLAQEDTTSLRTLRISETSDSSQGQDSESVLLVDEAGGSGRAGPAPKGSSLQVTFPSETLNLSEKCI
T1 sequence (P43116 whole entry): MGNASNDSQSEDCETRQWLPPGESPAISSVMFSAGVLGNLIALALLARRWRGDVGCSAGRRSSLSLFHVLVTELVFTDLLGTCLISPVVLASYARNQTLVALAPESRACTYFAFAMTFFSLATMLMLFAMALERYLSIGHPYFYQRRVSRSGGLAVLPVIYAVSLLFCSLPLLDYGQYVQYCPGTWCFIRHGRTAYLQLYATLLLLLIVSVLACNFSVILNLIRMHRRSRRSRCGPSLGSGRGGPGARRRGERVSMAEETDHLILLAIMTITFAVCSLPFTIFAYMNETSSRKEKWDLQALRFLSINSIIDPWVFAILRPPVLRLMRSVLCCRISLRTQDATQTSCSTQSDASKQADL

| Compound | EC50 (EP2 [1]) | Ki (EP2 [2]) | Ki (EP4 [3]) | EC50 (hEP3A) | EC50 (hDP) | EC50 (EP4 [4]) | maximum ocular surface hyperemia (OSH) score (normotensive dogs; at 26 h) | maximum intraocular pressure (IOP) decrease from baseline (normotensive dogs; at 102 h) | maximum intraocular pressure (IOP) decrease from baseline (percent) (normotensive dogs; at 102 h) | maximum IOP decrease from baseline [5] | maximum IOP decrease from baseline (percent) [5] | maximum intraocular pressure (IOP) decrease from baseline (normotensive dogs; at 54 h) | maximum intraocular pressure (IOP) decrease from baseline (percent) (normotensive dogs; at 54 h) | maximum ocular surface hyperemia (OSH) score (normotensive dogs; at 54 h) |
| --- | --- | --- | --- | --- | --- | --- | --- | --- | --- | --- | --- | --- | --- | --- |
| CCCCC[C@H](O)c1ccc(N2C(=O)NC(=O)C2CCCc2ccc(C(=O)O)s2)cc1 (stereo in doubt) [Example 2, 5-(3-(3-(4-(1-hydroxyhexyl)phenyl)-2,5-dioxoimidazolidin-4-yl)propyl)thiophene-2-carboxylic acid] | 3.5 nM | 5 nM | > 10000 nM | 10 nM | 17400 nM |  |  |  |  |  |  |  |  |  |
| CCCCCC(=O)c1ccc(N2C(=O)NC(=O)C2CCCc2ccc(C(=O)O)s2)cc1 (stereo not shown) [Example 1, 5-(3-(3-(4-hexanoylphenyl)-2,5-dioxoimidazolidin-4-yl)propyl)thiophene-2-carboxylic acid] | 17 nM | 4.5 nM | 3240 nM | 131 nM | 8810 nM | 17500 nM |  |  |  |  |  |  |  |  |
| CCCCC[C@H](O)c1ccc(N2C(=O)NC(=O)[C@@H]2CCCc2ccc(C(=O)O)s2)cc1 [Example 7, 5-(3-((S)-3-(4-((S)-1-hydroxyhexyl)phenyl)-2,5-dioxoimidazolidin-4-yl)propyl)thiophene-2-carboxylic acid] | 4 nM | 2 nM | 5070 nM | 5 nM | > 10000 nM |  |  |  |  |  |  |  |  |  |
| CCCCC[C@H](O)c1ccc(N2C(=O)NC(=O)[C@H]2CCCc2ccc(C(=O)O)s2)cc1 [Example 8, 5-(3-((R)-3-(4-((S)-1-hydroxyhexyl)phenyl)-2,5-dioxoimidazolidin-4-yl)propyl)thiophene-2-carboxylic acid] | 23 nM | 4 nM | 7190 nM | 29 nM | > 10000 nM |  |  |  |  |  |  |  |  |  |
| CCCCC[C@@H](O)c1ccc(N2C(=O)NC(=O)[C@@H]2CCCc2ccc(C(=O)O)s2)cc1 [Example 10, 5-(3-((S)-3-(4-((R)-1-hydroxyhexyl)phenyl)-2,5-dioxoimidazolidin-4-yl)propyl)thiophene-2-carboxylic acid] | 1 nM | 1 nM | 7210 nM | 15 nM | 19300 nM | 2000 nM |  |  |  |  |  |  |  |  |
| CCCCCC(O)c1ccc(N2C(=O)NC(=O)C2CCCc2ccc(C(=O)OC(C)C)s2)cc1 (stereo not shown) [Example 31, Isopropyl 5-(3-(3-(4-(1-hydroxyhexyl)phenyl)-2,5-dioxoimidazolidin-4-yl)propyl)thiophene-2-carboxylate] |  |  |  |  |  |  | 2.5 | 7.7 mmHg | 45% | 23 mmHg | 53% |  |  |  |
| CCCCCC(=O)c1ccc(N2C(=O)NC(=O)C2CCCc2ccc(C(=O)OC(C)C)s2)cc1 (stereo not shown) [Example 32, Isopropyl 5-(3-(3-(4-hexanoylphenyl)-2,5-dioxoimidazolidin-4-yl)propyl)thiophene-2-carboxylate] |  |  |  |  |  |  |  |  |  | 19 mmHg | 49% | 8.9 mmHg | 48% | 2.3 |
